Laboratory results published in patent publication US20260191827A1, “COMPOUNDS FOR USE IN THE TREATMENT OF DISEASES AND CONDITIONS ASSOCIATED WITH NEURODEGENERATIVE DYSFUNCTION” (OnTrack Therapeutics Limited, priority 2022, published 2026).
Where a name gives a salt, the structure may show the parent alone.

Tests used:
[1] = tested on: scopolamine-induced impairment in cognition; details: normal healthy humans, donepezil 10 mg; cited from earlier work
[2] = tested on: scopolamine-induced cognitive deficit in mice; experiment: Scopolamine-induced cognitive deficit, T-maze spontaneous alternation
Procedure: 60 male CD-1 mice (Janvier; Le Genest St Isle—France) were used for the study, with 10 animals per group.
Animals in the API groups were pre-treated (p.o.) once a day for 30 days, the last treatment was given 1 h before the T-maze test.
Compound of Formula I or its vehicle was administered at 5 ml/kg using p.o. route. The vehicle was 5% DMSO/0.5% methylcellulose in water. Fresh compound solution was prepared daily as following: the required amount of compound will be dissolved in 100% DMSO and then the required amount of 0.5% methylcellulose in water was added.
On the day of the T-maze, the last treatment was given 1 h before the task.
Donepezil (donepezil hydrochloride) was prepared in saline at a concentration of 0.03 mg/ml and was given p.o. at a dosage volume of 10 ml/kg 1 h before the T-maze trial start.
Scopolamine was prepared in saline (vehicle) at a concentration of 0.089 mg/ml (free base) and was given i.p. at a dosage volume of 10 ml/kg 30 min before the T-maze trial start.
The T-maze consists of 2 choice arms and 1 start arm mounted to a square centre. Sliding doors are provided to close specific arms during the force choice alternation task.
The experimental protocol consists of one single session, which starts with 1 “forced-choice” trial, followed by 14 “free-choice” trials. In the first “forced-choice” trial, the animal was confined for 5 s in the start arm and then was released while either the left or right goal arm was blocked by closing the sliding door. The animal then negotiated the maze, and eventually entered the open goal arm, and returned to the start position.
Immediately after the return of the animal to the start position, the left or right goal door was opened, and the animal was allowed to choose freely between the left and right goal arm (“free choice trials).
The animal was considered to have entered an arm when it placed its four paws in the arm.
A session was terminated, and the animal was removed from the maze as soon as 14 free-choice trials had been performed or 10 min have elapsed, whatever event occurred first.
The percentage of spontaneous alternations were calculated as number of spontaneous alternations divided by 14 possible free choice.
Statistical analysis was assessed using Anova followed by Fischer's Protected Least Significant Difference for pairwise comparison. p level <0.05 was deemed significant.

[3] = tested on: sub-chronic PCP-induced deficits in recognition memory in rats; experiment: Sub-chronic PCP-induced deficit in novel object recognition (NOR) paradigm; details: for Acquisition total exploration time / Retention total exploration time: mean ± s.e.m.
[4] = tested on: 5XFAD mice; details: repeated administration, WO2020/033604; cited from earlier work
[5] = tested on: animal model of Alzheimer's disease; details: low dose; Chen et al., 2021; cited from earlier work
[6] = target: tropomyosin receptor kinase B (TrkB) (Homo sapiens, UniProt Q16620); details: known from background; cited from earlier work
[7] = 20-day phase (day 20), scPCP rats, acute risperidone 0.1 mg/kg i.p. 60 min before test
[8] = acute phase (day 1), scPCP rats, risperidone 0.1 mg/kg i.p. 60 min before test
[9] = 20-day once-daily treatment, scPCP rats, 10 mg/kg p.o.
[10] = 20-day once-daily treatment, scPCP rats, 30 mg/kg p.o.
[11] = acute treatment, scPCP rats, 10 mg/kg p.o. 120 min before test
[12] = acute treatment, scPCP rats, 30 mg/kg p.o. 120 min before test

Chain of tropomyosin receptor kinase B (TrkB) (Q16620 32-822, species assumed): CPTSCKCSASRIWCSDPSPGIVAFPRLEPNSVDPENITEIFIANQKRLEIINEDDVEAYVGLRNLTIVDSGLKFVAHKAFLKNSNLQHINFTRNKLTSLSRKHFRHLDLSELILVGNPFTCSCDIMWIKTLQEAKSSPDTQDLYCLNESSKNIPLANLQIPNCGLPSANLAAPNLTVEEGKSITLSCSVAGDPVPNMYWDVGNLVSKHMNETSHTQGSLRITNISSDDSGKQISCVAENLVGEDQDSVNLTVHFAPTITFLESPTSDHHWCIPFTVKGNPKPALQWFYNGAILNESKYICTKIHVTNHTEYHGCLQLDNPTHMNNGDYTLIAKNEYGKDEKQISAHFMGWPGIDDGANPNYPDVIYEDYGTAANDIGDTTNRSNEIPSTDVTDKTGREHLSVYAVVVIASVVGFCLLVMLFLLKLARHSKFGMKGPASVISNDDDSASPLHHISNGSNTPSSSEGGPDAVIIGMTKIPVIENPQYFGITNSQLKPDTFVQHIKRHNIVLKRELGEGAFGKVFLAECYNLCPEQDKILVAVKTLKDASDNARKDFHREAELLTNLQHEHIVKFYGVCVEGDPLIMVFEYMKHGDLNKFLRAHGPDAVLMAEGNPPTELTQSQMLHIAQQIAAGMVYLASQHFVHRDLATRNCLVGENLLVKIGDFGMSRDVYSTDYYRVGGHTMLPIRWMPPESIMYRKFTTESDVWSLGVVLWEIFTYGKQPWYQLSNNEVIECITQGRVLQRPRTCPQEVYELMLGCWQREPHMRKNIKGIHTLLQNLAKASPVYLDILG

Compound: COc1cc2c(cc1OC)C(=O)C(CC1CCN(Cc3ccccc3)CC1)C2 (stereo not drawn) [Donepezil, donepezil hydrochloride, reference compound]
- scopolamine-induced impairment in cognition (power of attention, continuity of attention, quality of working memory, speed of memory) [1]: significantly attenuated
- Spontaneous alternation (%) ([2]; Scopolamine 0.89 mg/kg i.p., Donepezil 0.3 mg/kg p.o. 1 h before T-maze, hydrochloride): 65.0%
- Spontaneous alternation (%) ([2]; Scopolamine 0.89 mg/kg i.p., Donepezil 0.3 mg/kg p.o. 1 h before T-maze, listed as donepezil, hydrochloride): 65%
- effect on scopolamine-induced decline in cognitive function ([2]; donepezil 0.3 mg/kg, statistically significant): ameliorated

Compound: Cc1nc2n(c(=O)c1CCN1CCC(c3noc4cc(F)ccc34)CC1)CCCC2 [Risperidone, risperidone, reference compound]
- Acquisition total exploration time [3, 7]: 25.5 ± 3.4 s
- Retention total exploration time [3, 7]: 17.8 ± 1.1 s
- Acquisition total exploration time [3, 8]: 22.81 ± 4.03 s
- Retention total exploration time [3, 8]: 23.10 ± 2.92 s
- discrimination index (DI) ([3]; acute phase, risperidone 0.1 mg/kg i.p., versus scPCP without treatment and test compound (FIG. 4)): higher
- rescue of deficits induced by scPCP in NOR ([3]; risperidone dosed acutely): able to rescue the deficits induced by scPCP

Compound: N#Cc1ccc(-c2cc(=O)c3ccc4[nH]c(C(F)(F)F)nc4c3o2)cc1 [compound of Formula I, 4-(6-oxo-2-(trifluoromethyl)-3,6-dihydrochromeno [7,8-d]imidazol-8-yl)benzonitrile]
- synaptic loss [4]: able to prevent synaptic loss
- dose effect in Alzheimer's disease animal model [5]: saturation effect
- spontaneous alternations in comparison to vehicle in scopolamine-treated mice ([2]; 30 days treatment prior to scopolamine, statistically significant): increased percentage of spontaneous alternations
- Spontaneous alternation (%) ([2]; Saline (healthy mice), Compound of Formula I high dose 10 mg/kg p.o. once a day for 30 days, 10 mg/kg): 64%
- Spontaneous alternation (%) ([2]; Saline (healthy mice), Compound of Formula I high dose 10 mg/kg p.o. once a day for 30 days, listed as Compound of Formula I, 10 mg/kg): 64.3%
- Spontaneous alternation (%) ([2]; Scopolamine, Compound of Formula I high dose 10 mg/kg p.o. once a day for 30 days, 10 mg/kg): 56%
- Spontaneous alternation (%) ([2]; Scopolamine, Compound of Formula I high dose 10 mg/kg p.o. once a day for 30 days, listed as Compound of Formula I, 10 mg/kg): 55.7%
- Spontaneous alternation (%) ([2]; Scopolamine, Compound of Formula I low dose 5 mg/kg p.o. once a day for 30 days, 5 mg/kg): 56%
- Spontaneous alternation (%) ([2]; Scopolamine, Compound of Formula I low dose 5 mg/kg p.o. once a day for 30 days, listed as Compound of Formula I, 5 mg/kg): 55.7%
- effect on cognition in healthy animals ([2]; healthy mice, 10 mg/kg, 30 days): did not impair cognition in healthy animals
- Acquisition total exploration time [3, 9]: 24.6 ± 3.4 s
- Retention total exploration time [3, 9]: 19.0 ± 1.4 s
- Acquisition total exploration time [3, 10]: 26.1 ± 3.1 s
- Retention total exploration time [3, 10]: 20.8 ± 1.2 s
- discrimination index (DI) ([3]; 20-day treatment, 30 mg/kg, compared to animals without treatment, P<0.015 (FIG. 8)): statistically significant increase
- amount of time spent exploring the familiar and novel object in the retention trial ([3]; 20-day treatment, scPCP rats, 10 & 30 mg/kg p.o., P<0.01 (FIG. 7)): dose dependent statistically significant effect
- Acquisition total exploration time [3, 11]: 21.75 ± 2.46 s
- Retention total exploration time [3, 11]: 22.55 ± 1.60 s
- Acquisition total exploration time [3, 12]: 25.49 ± 3.04 s
- Retention total exploration time [3, 12]: 26.18 ± 2.11 s
- amount of time exploring the novel or familiar object in the retention trial ([3]; acute treatment, scPCP rats, 10 & 30 mg/kg p.o. (FIG. 3)): not shown to have a difference
- rescue of deficits induced by scPCP in NOR ([3]; dosing for a 20-day period): able to rescue the scPCP in a dose dependent manner

Compound: O=c1cc(-c2ccccc2)oc2c(O)c(O)ccc12 [tropoflavin, 7,8-dihydroxyflavone]
- TrkB activity [6]: potent and selective agonist
